Where a name gives a salt, the structure may show the parent alone.
The compounds below were run against IRAK4 kinase (Homo sapiens (Human), UniProt Q9NWZ3) (assay: IRAK4 Kinase Inhibition Assay (Cisbio HTRF KinEASE-STK S1 kit)). Details: IRAK4 kinase protein 10 nM, ATP 200 μM, STK Substrate 1-biotin 1 μM, 37° C. 2 h, read-out: IC50 (nM), IRAK4 kinase inhibitory activity.
Chain of IRAK4 kinase (Q9NWZ3 whole entry): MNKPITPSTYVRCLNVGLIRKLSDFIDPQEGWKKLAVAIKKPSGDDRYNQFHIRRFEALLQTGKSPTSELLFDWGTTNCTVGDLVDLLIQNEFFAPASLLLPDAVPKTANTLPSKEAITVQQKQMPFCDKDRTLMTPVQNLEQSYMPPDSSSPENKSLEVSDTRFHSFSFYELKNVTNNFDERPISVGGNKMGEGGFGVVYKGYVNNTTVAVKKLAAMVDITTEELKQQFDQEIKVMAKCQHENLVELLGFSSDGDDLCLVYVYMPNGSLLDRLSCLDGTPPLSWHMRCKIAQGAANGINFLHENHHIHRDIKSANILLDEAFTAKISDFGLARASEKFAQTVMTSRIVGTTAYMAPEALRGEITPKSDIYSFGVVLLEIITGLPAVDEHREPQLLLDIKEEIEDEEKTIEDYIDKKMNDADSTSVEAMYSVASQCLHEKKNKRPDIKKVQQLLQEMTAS
Type: biochemical
Protocol: Test Example 1. IRAK4 Kinase Inhibition Assay
In this assay, Cisbio HTRF KinEASE-STK SI kit (62S 1 PEB) was used, in which assay/detection buffer, STK Substrate 1-biotin, Streptavidin-XL665, STK Antibody-Cryptate were contained.
After adding compound/DMSO to a 384-well plate (PerkinElmer 6008280) using Echo 665, 5 μL of 2-fold reaction concentration of IRAK4 kinase protein (final concentration: 10 nM) dissolved with assay buffer [1 volume of 5× kinase buffer+20 mM magnesium chloride (Sigma) solution+1 mM DTT (Alfa Aesar) solution+4 volumes deionized water] was added, followed by sealing the shallow well plate, shaking and then centrifuging at 1000 rpm for 1 min, and incubating at room temperature for 5 min; then 5 μL of 2-fold reaction concentration of a 1:1 mixture of STK Substrate 1-biotin (final concentration: 1 μM) and ATP (Sigma A1852) (final concentration: 200 μM) formulated with assay buffer was added, followed by sealing the shallow well plate, shaking and then centrifuging at 1000 rpm for 1 min, and incubating at 37° C. for 2 h, and then 10 μL of a 1:1 mixture of Streptavidin-XL665 (final concentration: 62.5 nM) and STK-antibody-cryptate dissolved with detection buffer was added, followed by sealing the shallow well plate, shaking and then centrifuging at 1000 rpm for 1 min, and incubating at room temperature for 1 h, and thereafter reading the value at the wavelength of 620 nm/665 nm using a microplate reader. The data were analyzed using Prism 9.3 software, and the IC50 value of IRAK4 kinase inhibition was fitted using a four parameter Logistic equation.
Work on `FC(F)c1nn(C2CCCCC2)cc1-n1cc(-c2cnn3ccc(N4C[C@H]5C[C@@H]4CO5)nc23)nn1` [Compound 1A, (1R,4R)-5-(3-(1-(1-cyclohexyl-3-(difluoromethyl)-1H-pyrazol-4-yl)-1H-1,2,3-triazol-4-yl]pyrazolo[1,5-a]pyrimidin-5-yl)-2-oxa-5-azabicyclo[2.2.1]heptane] yielded an IC50 of 100 to 1000 nM.
`N#Cc1cnc2c(-c3cn(-c4cn(C5CCCCC5)nc4C(F)F)nn3)cnn2c1` [Compound 3A, 3-(1-(1-cyclohexyl-3-(difluoromethyl)-1H-pyrazol-4-yl)-1H-1,2,3-triazol-4-yl) pyrazolo[1,5-a]pyrimidine-6-carbonitrile] showed an IC50 of 100 to 1000 nM.
`FC(F)c1nn(C2CCCCC2)cc1-n1cc(-c2cnn3ccc(N4CCOCC4)nc23)nn1` [Compound 4A, 4-(3-(1-(1-cyclohexyl-3-(difluoromethyl)-1H-pyrazol-4-yl)-1H-1,2,3-triazol-4-yl)pyrazolo[1,5-a]pyrimidin-5-yl) morpholine] gave an IC50 of under 100 nM.
`N#Cc1cnc2c(ccn2-c2cn(-c3cn(C4CCCCC4)nc3C(F)F)nn2)c1` [Compound 43A, 1-(1-(1-cyclohexyl-3-(difluoromethyl)-1H-pyrazol-4-yl)-1H-1,2,3-triazol-4-yl]-1H-pyrrolo[2,3-b]pyridine-5-carbonitrile] was tested, and the IC50 was 1000 to 5000 nM.
Compound `FC(F)c1nn(C2CCCCC2)cc1-n1cc(-n2ccc3ccc(N4CCOCC4)nc32)nn1` [Compound 45A] has an IC50 of 1000 to 5000 nM.
In the case of `Cn1cc(-n2cc(-c3cnn4ccc(N5C[C@H]6C[C@@H]5CO6)nc34)nn2)c(C(F)F)n1` [Compound 46A], the IC50 is reported as 1000 to 5000 nM.
`FC(F)c1nn(C2CCCCC2)cc1-n1cc(-c2cnn3cccnc23)nn1` [Compound 56A, 3-(1-(1-cyclohexyl-3-(difluoromethyl)-1H-pyrazol-4-yl)-1H-1,2,3-triazol-4-yl]pyrazolo[1,5-a]pyrimidine] showed an IC50 of 1000 to 5000 nM.
In the case of `NC(=O)c1cnn2c(-c3cn(-c4cn(C5CCCCC5)nc4C(F)F)nn3)ccc2c1` [Compound 60A, 7-(1-(1-cyclohexyl-3-(difluoromethyl)-1H-pyrazol-4-yl)-1H-1,2,3-triazol-4-yl) pyrrolo[1,2-b]pyridazine-3-formamide], the IC50 is reported as under 100 nM.
For `O=C(O)c1cnn2c(-c3cn(-c4cn(C5CCCCC5)nc4C(F)F)nn3)ccc2c1` [Compound 61A, 7-(1-(1-cyclohexyl-3-(difluoromethyl)-1H-pyrazol-4-yl)-1H-1,2,3-triazol-4-yl]pyrrolo[1,2-b]pyridazine-3-carboxylic acid], the IC50 was 100 to 1000 nM.
`O=C(c1cnn2c(-c3cn(-c4cn(C5CCCCC5)nc4C(F)F)nn3)ccc2c1)N1CCNCC1` [Compound 64A, (7-(1-(1-cyclohexyl-3-(difluoromethyl)-1H-pyrazol-4-yl)-1H-1,2,3-triazol-4-yl]pyrrolo[1,2-b]pyridazin-3-yl) (piperazin-1-yl) methanone] showed an IC50 of 1000 to 5000 nM.
Work on `NC(=O)c1cnc2c(ccn2-c2cn(-c3cn(C4CCCCC4)nc3C(F)F)nn2)c1` [Compound 65A, 1-(1-(1-cyclohexyl-3-(difluoromethyl)-1H-pyrazol-4-yl)-1H-1,2,3-triazol-4-yl)-1H-pyrrolo[2,3-b]pyridine-5-formamide] yielded an IC50 of 100 to 1000 nM.
`O=C(O)c1cnc2c(ccn2-c2cn(-c3cn(C4CCCCC4)nc3C(F)F)nn2)c1` [Compound 66A, 1-(1-(1-cyclohexyl-3-(difluoromethyl)-1H-pyrazol-4-yl)-1H-1,2,3-triazol-4-yl)-1H-pyrrolo[2,3-b]pyridine-5-carboxylic acid] was tested, and the IC50 was 1000 to 5000 nM.
`O=C(NC1CCNC1)c1cnn2c(-c3cn(-c4cn(C5CCCCC5)nc4C(F)F)nn3)ccc2c1` (stereo not shown) [Compound 67A, 7-(1-(1-cyclohexyl-3-(difluoromethyl)-1H-pyrazol-4-yl)-1H-1,2,3-triazol-4-yl]-N-(pyrrolidin-3-yl)pyrrolo[1,2-b]pyridazine-3-formamide] gave an IC50 of over 5000 nM.
`O=C(NC1CNCC1(F)F)c1cnn2c(-c3cn(-c4cn(C5CCCCC5)nc4C(F)F)nn3)ccc2c1` (stereo not shown) [Compound 68A, 7-(1-(1-cyclohexyl-3-(difluoromethyl)-1H-pyrazol-4-yl)-1H-1,2,3-triazol-4-yl]-N-(4,4-difluoropyrrolidin-3-yl)pyrrolo[1,2-b]pyridazine-3-formamide] was tested, and the IC50 was 1000 to 5000 nM.
`FC(F)c1nn(C2CCNCC2)cc1-n1cc(-c2cnn3ccc(N4CCOCC4)nc23)nn1` [Compound 69A, 4-(3-(1-(3-(difluoromethyl)-1-(piperidin-4-yl)-1H-pyrazol-4-yl)-1,2,3-triazol-4-yl]pyrazolo[1,5-a]pyrimidin-5-yl) morpholine] gave an IC50 of 100 to 1000 nM.
With `C[C@@H]1C[C@@H](n2cc(-n3cc(-c4cnn5ccc(N6CCOCC6)nc45)nn3)c(C(F)F)n2)CCN1` [Compound 72A] the IC50 was under 100 nM.
`C[C@@H]1C[C@H](n2cc(-n3cc(-c4cnn5ccc(N6CCOCC6)nc45)nn3)c(C(F)F)n2)CCN1` [Compound 73A] was tested, and the IC50 was 100 to 1000 nM.
`C[C@H]1CC(n2cc(-n3cc(-c4cnn5ccc(N6CCOCC6)nc45)nn3)c(C(F)F)n2)CCN1` (stereo partly drawn) [Compound 79A, 4-(3-(1-(3-(difluoromethyl)-1-((2S)-2-methylpiperidin-4-yl)-1H-pyrazol-4-yl)-1,2,3-triazol-4-yl)pyrazolo[1,5-a]pyrimidin-5-yl) morpholine] was tested, and the IC50 was 100 to 1000 nM.
`C[C@@H]1CC(n2cc(-n3cc(-c4cnn5ccc(N6CCOCC6)nc45)nn3)c(C(F)F)n2)CCN1` (stereo partly drawn) [Compound 80A, 4-(3-(3-difluoromethyl)-1-(2R)-2-methylpiperidin-4-yl)-1H-pyrazol-4-yl)-1H-1,2,3-triazol-4-yl)pyrazolo[1,5-a]pyrimidin-5-yl) morpholine hydrochloride] showed an IC50 of 100 to 1000 nM.
In the case of `C[C@H]1COCCN1c1ccn2ncc(-c3cn(-c4cn(C5CCCCC5)nc4C(F)F)nn3)c2n1` [Compound 82A, (S)-4-(3-(1-(1-cyclohexyl-3-(difluoromethyl)-1H-pyrazol-4-yl)-1H-1,2,3-triazol-4-yl]pyrazolo[1,5-a]pyrimidin-5-yl)-3-methylmorpholine], the IC50 is reported as 100 to 1000 nM.
`C[C@H]1CN(c2ccn3ncc(-c4cn(-c5cn(C6CCCCC6)nc5C(F)F)nn4)c3n2)CCO1` [Compound 83A, (2S)-4-(3-{1-[1-cyclohexyl-3-(difluoromethyl)-1H-pyrazol-4-yl]-1H-1,2,3-triazol-4-yl}pyrazolo[1,5-a]pyrimidin-5-yl)-2-methylmorpholine] showed an IC50 of 100 to 1000 nM.
`NC(=O)c1cnn2c(-c3cn(-c4cn(C5CCNCC5)nc4C(F)F)nn3)ccc2c1` [Compound 84A, 7-(1-(3-(difluoromethyl)-1-(piperidin-4-yl)-1H-pyrazol-4-yl)-1H-1,2,3-triazol-4-yl)pyrrolo[1,2-b]pyridazine-3-formamide] was tested, and the IC50 was 100 to 1000 nM.
`CC1(C)CC(n2cc(-n3cc(-c4cnn5ccc(N6CCOCC6)nc45)nn3)c(C(F)F)n2)CCN1` (stereo not shown) [Compound 85A, 4-(3-(1-(3-(difluoromethyl)-1-(2,2-dimethylpiperidin-4-yl)-1H-pyrazol-4-yl)-1,2,3-triazol-4-yl]pyrazolo[1,5-a]pyrimidin-5-yl) morpholine] showed an IC50 of under 100 nM.
With `CC1(C)C[C@H](n2cc(-n3cc(-c4cnn5ccc(N6CCOCC6)nc45)nn3)c(C(F)F)n2)CCN1` [Compound 86A, (R)-4-(3-(1-(3-(difluoromethyl)-1-(2,2-dimethylpiperidin-4-yl)-1H-pyrazol-4-yl)-1,2,3-triazol-4-yl]pyrazolo[1,5-a]pyrimidin-5-yl) morpholine] the IC50 was 100 to 1000 nM.
In the case of `CC1(C)C[C@@H](n2cc(-n3cc(-c4cnn5ccc(N6CCOCC6)nc45)nn3)c(C(F)F)n2)CCN1` [Compound 87A, (S)-4-(3-(1-(3-(difluoromethyl)-1-(2,2-dimethylpiperidin-4-yl)-1H-pyrazol-4-yl)-1,2,3-triazol-4-yl]pyrazolo[1,5-a]pyrimidin-5-yl) morpholine], the IC50 is reported as 100 to 1000 nM.
With `CC1(C)COCCN1c1ccn2ncc(-c3cn(-c4cn([C@H]5CC[C@H](CO)CC5)nc4C(F)F)nn3)c2n1` [Compound 88A, ((1r,4r)-4-(3-(difluoromethyl)-4-(4-(5-(3,3-dimethylmorpholinyl)pyrazolo[1,5-a]pyrimidin-3-yl)-1H-1,2,3-triazol-1-yl)-1H-pyrazol-1-yl)cyclohexyl)methanol] the IC50 was 100 to 1000 nM.
`CC1(C)CN(c2ccn3ncc(-c4cn(-c5cn(C6CCC(CO)CC6)nc5C(F)F)nn4)c3n2)CCO1` (stereo not shown) [Compound 89A, ((1r,4r)-4-(3-(difluoromethyl)-4-(4-(5-(2,2-dimethylmorpholinyl)pyrazolo[1,5-a]pyrimidin-3-yl)-1H-1,2,3-triazol-1-yl)-1H-pyrazol-1-ylcyclohexyl)methanol] showed an IC50 of 100 to 1000 nM.
`OC[C@H]1CC[C@H](n2cc(-n3cc(-c4cnn5ccc(N6CC7(COC7)C6)nc45)nn3)c(C(F)F)n2)CC1` [Compound 90A, ((1r, 4r)-4-(4-(4-(5-(2-oxa-6-azaspiro[3.3]heptan-6-yl)pyrazolo[1,5-a]pyrimidin-3-yl)-1H-1,2,3-triazol-1-yl)-3-(difluoromethyl)-1H-pyrazol-1-yl]cyclohexyl)methanol] was tested, and the IC50 was 100 to 1000 nM.
